Laboratory results: BindingDB's records for doi:10.7270/Q2NS0S90 (The Scripps Research Institute Molecular Screening Center, 2009)

These compounds were tested against VIM-2 metallo β-lactamase (Pseudomonas aeruginosa, UniProt Q9K2N0) (assay: VIM-2 inhibitor FRET-based artefact check, dose response, artefact control for selective VIM-2 inhibitor project, biochemical, FRET readout, CCF2 substrate (AID 1926)).

SMILES	IC50
COc1ccc(C(=O)C2C(=O)C(=O)N(Cc3ccco3)C2c2cc(OC)ccc2OC)cc1 (configuration not stated) [(4E)-5-(2,5-dimethoxyphenyl)-1-(2-furanylmethyl)-4-[hydroxy-(4-methoxyphenyl)methylidene]pyrrolidine-2,3-dione]	5.61 µM
COc1ccc(OC)c(C2C(C(=O)c3ccco3)C(=O)C(=O)N2Cc2cccnc2)c1 (configuration not stated) [2-(2,5-dimethoxyphenyl)-3-(furan-2-carbonyl)-4-hydroxy-1-(pyridin-3-ylmethyl)-2H-pyrrol-5-one]	0.7 µM
COc1cc(OC)c(OC)cc1C=NNC(=O)Cc1c(C)[nH][nH]c1=O [MLS000555854]	1.46 µM
O=C1C(=O)N(Cc2cccnc2)C(c2ccccn2)C1C(=O)c1ccc(F)cc1 (configuration not stated) [(4Z)-4-[(4-fluorophenyl)-hydroxy-methylene]-5-(2-pyridyl)-1-(3-pyridylmethyl)pyrrolidine-2,3-quinone]	0.941 µM
COc1ccc(OC)c(C=NNC(=O)Cc2c(C)[nH][nH]c2=O)c1 [SMR000147372]	2.13 µM
O=C1C(=O)N(Cc2cccnc2)C(c2ccccn2)C1C(=O)c1ccccc1 (configuration not stated) [(4Z)-4-[hydroxy(phenyl)methylene]-5-(2-pyridyl)-1-(3-pyridylmethyl)pyrrolidine-2,3-quinone]	2.17 µM
O=C1C(=O)N(Cc2cccnc2)C(c2ccccn2)C1C(=O)c1cccs1 (configuration not stated) [3-hydroxy-5-(2-pyridinyl)-1-(3-pyridinylmethyl)-4-(2-thienylcarbonyl)-1,5-dihydro-2H-pyrrol-2-one]	4.83 µM
